{"source": "patent US20020128231A1", "about": "(priority 2000, published 2002)", "key": {"P-glycoprotein": {"target": "P-glycoprotein (Homo sapiens, UniProt P08183)", "sequence (P08183 whole entry)": "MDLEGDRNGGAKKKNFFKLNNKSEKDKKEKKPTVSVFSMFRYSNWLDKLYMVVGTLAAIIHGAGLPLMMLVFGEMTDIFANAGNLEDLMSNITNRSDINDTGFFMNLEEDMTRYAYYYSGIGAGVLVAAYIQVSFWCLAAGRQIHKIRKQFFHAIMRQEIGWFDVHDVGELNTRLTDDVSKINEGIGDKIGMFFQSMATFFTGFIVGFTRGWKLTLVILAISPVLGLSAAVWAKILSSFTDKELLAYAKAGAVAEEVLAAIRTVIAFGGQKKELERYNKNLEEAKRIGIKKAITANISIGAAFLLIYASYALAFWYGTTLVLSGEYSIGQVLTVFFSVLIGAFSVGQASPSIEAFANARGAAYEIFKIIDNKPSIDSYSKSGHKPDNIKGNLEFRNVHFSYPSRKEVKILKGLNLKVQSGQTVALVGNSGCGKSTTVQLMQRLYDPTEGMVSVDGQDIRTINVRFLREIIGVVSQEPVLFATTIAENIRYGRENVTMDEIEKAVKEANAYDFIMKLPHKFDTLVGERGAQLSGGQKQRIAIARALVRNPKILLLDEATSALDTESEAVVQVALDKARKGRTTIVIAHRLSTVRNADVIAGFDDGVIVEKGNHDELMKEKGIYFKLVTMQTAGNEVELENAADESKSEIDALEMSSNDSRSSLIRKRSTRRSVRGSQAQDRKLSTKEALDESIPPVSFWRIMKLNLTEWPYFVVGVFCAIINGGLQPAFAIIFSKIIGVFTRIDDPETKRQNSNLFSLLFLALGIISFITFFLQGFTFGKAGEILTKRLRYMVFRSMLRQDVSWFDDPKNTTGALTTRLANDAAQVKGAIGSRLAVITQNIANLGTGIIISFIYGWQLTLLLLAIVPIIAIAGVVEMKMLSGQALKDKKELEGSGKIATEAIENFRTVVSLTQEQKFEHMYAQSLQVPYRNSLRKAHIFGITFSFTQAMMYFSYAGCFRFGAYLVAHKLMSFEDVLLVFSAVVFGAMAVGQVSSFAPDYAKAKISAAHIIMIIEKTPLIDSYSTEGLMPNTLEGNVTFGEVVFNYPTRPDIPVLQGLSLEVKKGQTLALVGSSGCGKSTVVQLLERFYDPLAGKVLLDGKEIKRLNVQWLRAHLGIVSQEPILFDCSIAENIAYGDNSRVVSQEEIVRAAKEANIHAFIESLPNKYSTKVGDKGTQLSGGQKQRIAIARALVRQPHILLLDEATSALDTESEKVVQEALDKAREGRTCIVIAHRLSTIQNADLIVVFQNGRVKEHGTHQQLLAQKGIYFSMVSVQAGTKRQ", "assay": "Rhodamine 123 transport assay across HCT-8 cell monolayers", "conditions": "compound 10 μM, Rh123 15 μM, HCT-8 cells; for inhibition at 10 μM: human, HCT-8 cell monolayers in Transwell dishes, probe Rhodamine 123 (15 μM), % Inhibition of R123 Transport", "protocol": "The human ileocecal adenocarcinoma cell line HCT-8 was grown in RPMI-1640 medium supplemented with 10% horse serum, 1 mM sodium pyruvate and 0.01 mg/ml gentamicin. All cells were maintained in a humidified atmosphere with 5% CO2 at 37° C.\nRhodamine 123 transport was examined as previously described (Hunter J. et al., Simmons, Br. J. Cancer, 64: 437444 (1991); Kim A. E. et al., J. Pharm. Exp. Ther., 286: 1439-1445 (1998)) using HCT-8 cells. Particularly, cells were grown in 6 well Corning Transwell dishes until a tight monolayer was formed. Rh123 was added at a final concentration of 15 μM to the basal or apical compartments and 200 μl samples were taken at the indicated times from the opposite chamber. Fluorescence of Rh123 in the media samples was measured using a fluorescence plate reader with an excitation wavelength of 485 nm and an emission wavelength of 530 nm."}, "[1]": {"tested_on": "MDR1-expressing NIH 3T3 cells", "assay": "Cytotoxicity (MTT) assay: modulation of drug cytotoxicity in multidrug resistant cells", "conditions": "compound 5 μM; 50 nM doxorubicin; 72 hours; MTT", "protocol": "Cytotoxicity assays were performed with many of the compounds of Formula I to verify their usefulness as inhibitors of P-gp.\nParental NIH3T3 Swiss mouse embryo cell line was obtained from American Type Culture Collection and was grown in Dulbecco's Modified Eagles Medium supplemented with 4.5 g/L glucose, 10% fetal bovine serum, 2 mM L-glutamine, and 0.01 mg/ml gentamicin. […] All cells were maintained in a humidified atmosphere with 5% CO2 at 37° C.\nParental and MDR1-expressing NIH 3T3 cells were plated at a density of 2.5-3.0×10^3 cells/well in 96-well microtiter plates and were exposed to 50 nM of doxoriubicin, 7.5 nM vinblastine, 75 nM colchicine or 300 nM paclitaxel for 72 hours. Cell viability was determined with the colorimetric MTT (3-(4,5-dimethylthiazol-2-yl)-2,5-diphenyl tetrazolium) assay as previously described (Mosmann T., J. Immunol. Methods, 65: 55-63 (1983); Hansen M. B. et al., J. Immunol. Methods, 119: 203-210 (1989)) and the absorbance was measured at 570 nm."}}}
{"smiles": "COCC1C(CCOS(C)(=O)=O)c2cc(OC)c(OC)cc2C1c1ccc(OC)c(OC)c1", "note": "(stereo not drawn) [AV-177, methanesulfonic acid 2-[3-(3,4-dimethoxyphenyl)-5,6-dimethoxy-2-methoxymethyl-indan-1-yl] ethyl ester]", "values": [{"measurement": "% Inhibition of R123 Transport", "setting": "P-glycoprotein", "value": 9.4, "unit": "%"}, {"measurement": "Modulation of Drug Resistance (percentage increase in doxorubicin cytotoxicity in the presence of the compounds versus in their absence)", "setting": "[1]", "value": 40.32, "unit": "%"}]}
{"smiles": "COCC1C(CCN2CCN(Cc3ccccc3)CC2)c2cc(OC)c(OC)cc2C1c1ccc(OC)c(OC)c1", "note": "(stereo not drawn) [AV-178, 1-benzyl-4-{2-[3-(3,4-dimethoxyphenyl)-5,6-dimethoxy-2-methoxymethyl-indan-1-yl]-ethyl}-piperazine]", "values": [{"measurement": "inhibition at 10 μM", "setting": "P-glycoprotein", "value": 79, "unit": "%"}, {"measurement": "Modulation of Drug Resistance (percentage increase in doxorubicin cytotoxicity in the presence of the compounds versus in their absence)", "setting": "[1]", "value": 54.50, "unit": "%"}]}
{"smiles": "COc1ccc(C2c3cc(OC)c(OC)cc3C(CC(=O)N3CCN(C(=O)OCc4ccccc4)CC3)C2C(=O)N2CCN(C(=O)OCc3ccccc3)CC2)cc1OC", "note": "(stereo not drawn) [AV-179, 4-{2-[3-(3,4-dimethoxyphenyl)-5,6-dimethoxy-2-(piperazine-1-carboxylic acid benzyl ester)-indan-1-yl]-acetyl}-piperazine-1-carboxylic acid benzyl ester]", "values": [{"measurement": "% Inhibition of R123 Transport", "setting": "P-glycoprotein", "value": 87.7, "unit": "%"}, {"measurement": "Modulation of Drug Resistance (percentage increase in doxorubicin cytotoxicity in the presence of the compounds versus in their absence)", "setting": "[1]", "value": 58.07, "unit": "%"}]}
{"smiles": "COc1ccc(C2c3cc(OC)c(OC)cc3C(CC(=O)N3CCN(C(=O)OC(C)(C)C)CC3)C2C(=O)N2CCN(C(=O)OC(C)(C)C)CC2)cc1OC", "note": "(stereo not drawn) [AV-180, 4-{2-[3-(3,4-dimethoxyphenyl)-5,6-dimethoxy-2-(piperazine-1-carboxylic acid t-butyl ester)-indan-1-yl]-acetyl}-piperazine-1-carboxylic acid t-butyl ester]", "values": [{"measurement": "% Inhibition of R123 Transport", "setting": "P-glycoprotein", "value": 40.4, "unit": "%"}, {"measurement": "Modulation of Drug Resistance (percentage increase in doxorubicin cytotoxicity in the presence of the compounds versus in their absence)", "setting": "[1]", "value": 42.84, "unit": "%"}]}
{"smiles": "COc1ccc(C2c3cc(OC)c(OC)cc3C(CC(=O)N(C)C)C2C(=O)N(C)C)cc1OC", "note": "(stereo not drawn) [AV-181, 1-(3,4-dimethoxyphenyl)-3-dimethylcarbamoylmethyl-5,6-dimethoxy-indan-2-carboxylic acid dimethyl amide]", "values": [{"measurement": "inhibition at 10 μM", "setting": "P-glycoprotein", "value": 6, "unit": "%"}, {"measurement": "Modulation of Drug Resistance (percentage increase in doxorubicin cytotoxicity in the presence of the compounds versus in their absence)", "setting": "[1]", "value": 6.13, "unit": "%"}]}
{"smiles": "CCN(CC)C(=O)CC1c2cc(OC)c(OC)cc2C(c2ccc(OC)c(OC)c2)C1C(=O)N(CC)CC", "note": "(stereo not drawn) [AV-182, 1-(3,4-dimethoxyphenyl)-3-diethylcarbamoylmethyl-5,6-dimethoxy-indan-2-carboxylic acid diethyl amide]", "values": [{"measurement": "inhibition at 10 μM", "setting": "P-glycoprotein", "value": 25, "unit": "%"}, {"measurement": "Modulation of Drug Resistance (percentage increase in doxorubicin cytotoxicity in the presence of the compounds versus in their absence)", "setting": "[1]", "value": 23.87, "unit": "%"}]}
{"smiles": "COc1ccc(N2CCN(CCC3c4cc(OC)c(OC)cc4C(c4ccc(OC)c(OC)c4)C3CN3CCN(c4ccc(OC)cc4)CC3)CC2)cc1", "note": "(stereo not drawn) [AV-183, 2-{3-(3,4-dimethoxyphenyl)-5,6-dimethoxy-2-[4-(4-methoxy)-piperazin-1-yl-methyl]-indan-1-yl}-1-[4-(4-methoxyphenyl)-piperazin-1-yl]-ethane]", "values": [{"measurement": "% Inhibition of R123 Transport", "setting": "P-glycoprotein", "value": 63.0, "unit": "%"}, {"measurement": "Modulation of Drug Resistance (percentage increase in doxorubicin cytotoxicity in the presence of the compounds versus in their absence)", "setting": "[1]", "value": 52.24, "unit": "%"}]}
{"smiles": "CCOc1ccccc1N1CCN(CCC2c3cc(OC)c(OC)cc3C(c3ccc(OC)c(OC)c3)C2CN2CCN(c3ccccc3OCC)CC2)CC1", "note": "(stereo not drawn) [AV-184, 2-{3-(3,4-dimethoxyphenyl)-5,6-dimethoxy-2-[4-(2-ethoxyphenyl)-piperazin-1-yl-methyl]-indan-1-yl}-1-[4-(2-ethoxyphenyl)-piperazin-1-yl]-ethane]", "values": [{"measurement": "inhibition at 10 μM", "setting": "P-glycoprotein", "value": 53.7, "unit": "%"}, {"measurement": "Modulation of Drug Resistance (percentage increase in doxorubicin cytotoxicity in the presence of the compounds versus in their absence)", "setting": "[1]", "value": 50.58, "unit": "%"}]}
{"smiles": "COc1ccc(C2c3cc(OC)c(OC)cc3C(CC(=O)N3CCNCC3)C2C(=O)N2CCNCC2)cc1OC", "note": "(stereo not drawn) [AV-185, 2-[3-(3,4-dimethoxyphenyl)-5,6-dimethoxy-2-(piperazine-1-carbonyl)-indan-1-yl]-1-piperazin-1-yl-ethanone]", "values": [{"measurement": "inhibition at 10 μM", "setting": "P-glycoprotein", "value": 25.1, "unit": "%"}, {"measurement": "Modulation of Drug Resistance (percentage increase in doxorubicin cytotoxicity in the presence of the compounds versus in their absence)", "setting": "[1]", "value": 18.48, "unit": "%"}]}
{"smiles": "COc1ccc(C2c3cc(OC)c(OC)cc3C(CCN3CCN(c4ccc(Cl)cc4)CC3)C2CN2CCN(c3ccc(Cl)cc3)CC2)cc1OC", "note": "(stereo not drawn) [AV-186, 2-{3-(3,4-dimethoxyphenyl)-5,6-dimethoxy-2-[4-(4-chlorophenyl)-piperazin-1-yl-methyl]-indan-1-yl}-1-[4-(4-chlorophenyl)-piperazin-1-yl]-ethane]", "values": [{"measurement": "inhibition at 10 μM", "setting": "P-glycoprotein", "value": 65.8, "unit": "%"}, {"measurement": "Modulation of Drug Resistance (percentage increase in doxorubicin cytotoxicity in the presence of the compounds versus in their absence)", "setting": "[1]", "value": 64.87, "unit": "%"}]}
{"smiles": "CCN1CCN(C(=O)CC2c3cc(OC)c(OC)cc3C(c3ccc(OC)c(OC)c3)C2C(=O)N2CCN(CC)CC2)CC1", "note": "(stereo not drawn) [AV-187, 2-[3-(3,4-dimethoxyphenyl)-5,6-dimethoxy-2-(4-ethylpiperazine-1-carbonyl)-indan-1-yl]-1-(4-ethylpiperazin-1-yl)-ethanone]", "values": [{"measurement": "inhibition at 10 μM", "setting": "P-glycoprotein", "value": 2.7, "unit": "%"}, {"measurement": "Modulation of Drug Resistance (percentage increase in doxorubicin cytotoxicity in the presence of the compounds versus in their absence)", "setting": "[1]", "value": 23.50, "unit": "%"}]}
{"smiles": "COc1ccc(C2c3cc(OC)c(OC)cc3C(CC(=O)N3CCN(c4ccccc4OC)CC3)C2C(=O)N2CCN(c3ccccc3OC)CC2)cc1OC", "note": "(stereo not drawn) [AV-188, 2-{3-(3,4-dimethoxyphenyl)-5,6-dimethoxy-2-[4-(2-methoxyphenyl)-piperazin-1-carbonyl]-indan-1-yl}-1-[4-(2-methoxy-phenyl)-1-yl]-ethanone]", "values": [{"measurement": "% Inhibition of R123 Transport", "setting": "P-glycoprotein", "value": 87.6, "unit": "%"}, {"measurement": "Modulation of Drug Resistance (percentage increase in doxorubicin cytotoxicity in the presence of the compounds versus in their absence)", "setting": "[1]", "value": 75.39, "unit": "%"}]}
{"smiles": "CCCN(CCC)C(=O)CC1c2cc(OC)c(OC)cc2C(c2ccc(OC)c(OC)c2)C1C(=O)N(CCC)CCC", "note": "(stereo not drawn) [AV-189, 1-(3,4-dimethoxyphenyl)-3-dipropylcarbamoylmethyl-5,6-dimethoxy-indan-2-carboxylic acid dipropyl amide]", "values": [{"measurement": "inhibition at 10 μM", "setting": "P-glycoprotein", "value": 60, "unit": "%"}, {"measurement": "Modulation of Drug Resistance (percentage increase in doxorubicin cytotoxicity in the presence of the compounds versus in their absence)", "setting": "[1]", "value": 64.78, "unit": "%"}]}
{"smiles": "CCCCN(CCCC)C(=O)CC1c2cc(OC)c(OC)cc2C(c2ccc(OC)c(OC)c2)C1C(=O)N(CCCC)CCCC", "note": "(stereo not drawn) [AV-190, 1-(3,4-dimethoxyphenyl)-3-dibutylcarbamoylmethyl-5,6-dimethoxy-indan-2-carboxylic acid dibutyl amide]", "values": [{"measurement": "inhibition at 10 μM", "setting": "P-glycoprotein", "value": 52.2, "unit": "%"}, {"measurement": "Modulation of Drug Resistance (percentage increase in doxorubicin cytotoxicity in the presence of the compounds versus in their absence)", "setting": "[1]", "value": 65.35, "unit": "%"}]}
{"smiles": "COc1ccc(C2c3cc(OC)c(OC)cc3C(CC(=O)N(CC(C)C)CC(C)C)C2C(=O)N(CC(C)C)CC(C)C)cc1OC", "note": "(stereo not drawn) [AV-191, 1-[(diisobutylcarbamoyl)methyl]-3-(3,4-dimethoxyphenyl)-5,6-dimethoxy-indan-2-carboxylic acid diisobutylamide]", "values": [{"measurement": "inhibition at 10 μM", "setting": "P-glycoprotein", "value": 64.9, "unit": "%"}, {"measurement": "Modulation of Drug Resistance (percentage increase in doxorubicin cytotoxicity in the presence of the compounds versus in their absence)", "setting": "[1]", "value": 63.49, "unit": "%"}]}
{"smiles": "CCCCC(CC)CN(CC(CC)CCCC)C(=O)CC1c2cc(OC)c(OC)cc2C(c2ccc(OC)c(OC)c2)C1C(=O)N(CC(CC)CCCC)CC(CC)CCCC", "note": "(stereo not drawn) [AV-192, 1-{[bis(2-ethylhexyl)carbamoyl]methyl}-3-(3,4-dimethoxyphenyl)-5,6-dimethoxy-indan-2-carboxylic acid bis(2-ethylhexyl) amide]", "values": [{"measurement": "inhibition at 10 μM", "setting": "P-glycoprotein", "value": 20.2, "unit": "%"}, {"measurement": "Modulation of Drug Resistance (percentage increase in doxorubicin cytotoxicity in the presence of the compounds versus in their absence)", "setting": "[1]", "value": 19.61, "unit": "%"}]}
{"smiles": "CCCCCCN(CCCCCC)C(=O)CC1c2cc(OC)c(OC)cc2C(c2ccc(OC)c(OC)c2)C1C(=O)N(CCCCCC)CCCCCC", "note": "(stereo not drawn) [AV-193, 1-(3,4-dimethoxyphenyl)-3-dihexylcarbamoylmethyl-5,6-dimethoxy-indan-2-carboxylic acid dihexyl amide]", "values": [{"measurement": "inhibition at 10 μM", "setting": "P-glycoprotein", "value": 11.8, "unit": "%"}, {"measurement": "Modulation of Drug Resistance (percentage increase in doxorubicin cytotoxicity in the presence of the compounds versus in their absence)", "setting": "[1]", "value": 25.20, "unit": "%"}]}
{"smiles": "COCC1C(CCN2CCN(c3ccccc3)CC2)c2cc(OC)c(OC)cc2C1c1ccc(OC)c(OC)c1", "note": "(stereo not drawn) [AV-198, 1-{-2-[3-(3,4-dimethoxyphenyl)-5,6-dimethoxy-2-methoxymethyl-indan-1-yl]-ethyl}-4-phenylpiperazine]", "values": [{"measurement": "inhibition at 10 μM", "setting": "P-glycoprotein", "value": 84.7, "unit": "%"}, {"measurement": "Modulation of Drug Resistance (percentage increase in doxorubicin cytotoxicity in the presence of the compounds versus in their absence)", "setting": "[1]", "value": 58.65, "unit": "%"}]}
{"smiles": "COCC1C(CCN2CCN(c3ccc(OC)cc3)CC2)c2cc(OC)c(OC)cc2C1c1ccc(OC)c(OC)c1", "note": "(stereo not drawn) [AV-199, 1-{-2-[3-(3,4-dimethoxyphenyl)-5,6-dimethoxy-2-methoxymethyl-indan-1-yl]-ethyl}-4-(4-methoxyphenyl)-piperazine]", "values": [{"measurement": "inhibition at 10 μM", "setting": "P-glycoprotein", "value": 84, "unit": "%"}, {"measurement": "Modulation of Drug Resistance (percentage increase in doxorubicin cytotoxicity in the presence of the compounds versus in their absence)", "setting": "[1]", "value": 61.63, "unit": "%"}]}
{"smiles": "COCC1C(CCN2CCN(C(=O)OCc3ccccc3)CC2)c2cc(OC)c(OC)cc2C1c1ccc(OC)c(OC)c1", "note": "(stereo not drawn) [AV-200, 4-{2-[3-(3,4-dimethoxyphenyl)-5,6-dimethoxy-2-methoxymethyl-indan-1-yl]-ethyl}-piperazine-1-carboxylic acid benzyl ester]", "values": [{"measurement": "inhibition at 10 μM", "setting": "P-glycoprotein", "value": 86.4, "unit": "%"}, {"measurement": "Modulation of Drug Resistance (percentage increase in doxorubicin cytotoxicity in the presence of the compounds versus in their absence)", "setting": "[1]", "value": 61.40, "unit": "%"}]}
{"smiles": "COCC1C(CCN2CCN(c3ccc(F)cc3)CC2)c2cc(OC)c(OC)cc2C1c1ccc(OC)c(OC)c1", "note": "(stereo not drawn) [AV-201, 1-{-2-[3-(3,4-dimethoxyphenyl)-5,6-dimethoxy-2-methoxymethyl-indan-1-yl]-ethyl}-4-(4-fluorophenyl)-piperazine]", "values": [{"measurement": "inhibition at 10 μM", "setting": "P-glycoprotein", "value": 83.8, "unit": "%"}, {"measurement": "Modulation of Drug Resistance (percentage increase in doxorubicin cytotoxicity in the presence of the compounds versus in their absence)", "setting": "[1]", "value": 66.44, "unit": "%"}]}
